Measured values published in patent publication US10500142B2, “Oral care compositions” (COLGATE-PALMOLIVE COMPANY, priority 2015, dated 2019).

Columns and labels:
[1] = Solution preparation: clarity / dissolution of SnF2 with TSPP or TKPP in water; format: physicochemical; details: 2% SnF2 in water with TSPP or TKPP; as prepared
Experimental: The solutions are prepared by first dissolving TSPP or TKPP in water (mixing under high heat if necessary) and then adding a 20% stannous fluoride solution to the clear solution with an automatic pipet. […] All of the solutions contain 2% SnF2.

[2] = SnCl2.2H2O/pyrophosphate solutions: appearance on preparation and aging at room temperature; format: physicochemical; details: 3% SnCl2.2H2O; aged overnight at room temperature
Experimental: Solutions are prepared by dissolving TSPP in deionized water (mixing under heat if necessary) and then adding 0.6 g of SnCl2.2H2O to make 20-gram solutions.
The solutions with a P/Sn molar ratio spanning from 0.5 to 5 containing 3% SnCl2.2H2O are aged overnight at room temperature. A 3% SnCl2.2H2O solution is used as a control.
Solutions are prepared by dissolving TKPP in deionized water (mixing under heat if necessary) and then adding 0.6 g SnCl2.2H2O to make 20-g solutions.

Row | Structure (SMILES) | appearance / dissolution of the solution on preparation [1] | appearance after aging overnight [2]
1 | [F][Sn][F] [2% stannous fluoride solution, stannous fluoride] | precipitate almost immediately after dissolution | 
2 | O.O.[Cl][Sn][Cl] [3% SnCl2.2H2O solution, SnCl2.2H2O] |  | cloudy precipitate that settles
